Experimental data: patent US20260199497A1, “GLUCOCORTICOID RECEPTOR AGONIST AND CONJUGATE THEREOF” (priority 2023, published 2026)

Tests used:
Format in all cases: cell-based
mouse B cells = test: In vitro inhibition of the proliferation of mouse B cells by the glucocorticoid; settings: 4 days; for IC50: B-cell, 96 h, LPS 5 μg/ml stimulated mouse spleen B cells, live cells by flow cytometry; for in-vitro inhibitory activity on the proliferation of mouse B cells: LPS 5 μg/ml, ranking of the compounds
Procedure: According to instructions of the EasySEP mouse panB cell sorting kit (Stemcell/1984/1×100e9 cells), B cells were isolated from mouse spleen cells. After obtaining the B cells, they were resuspended in complete medium (1640+10% FBS+50 uM β-mercaptoethanol), and added to a 96-well cell culture plate at 1E5 cells/100 μL per well. 4×LPS (20 μg/ml) was prepared, and add to the plated cells at 50 μL per well, with a final concentration of 5 μg/ml. The glucocorticoid was diluted with complete medium in a 5-fold gradient, starting at a final concentration of 20 nM, and added to the plated cells at 50 μL per well. The cells were incubated in a 37° C. cell culture incubator for 4 days. Then PI was added to the cells for dead cell staining, and the number of live cells was detected by flow cytometry. The cell viability was calculated using the number of live cells in the untreated wells as the denominator. The cell viability values was imported into the GraphPad Prism 8 software to calculate IC50. The structure of the comparative compound 1 is as follows: […]

glucocorticoid receptor [1] = target: T1, glucocorticoid receptor (Homo sapiens, UniProt P04150); test: In vitro activation activity of the glucocorticoid on the glucocorticoid receptor in Hela-MMTV luciferase reporter cells; settings: 48 hours; for in vitro activation activity on the glucocorticoid receptor in the cells: Hela-MMTV cells, compared with comparative compound 1; for EC50: Hela-MMTV luciferase reporter cells
T1 sequence (P04150 1-777): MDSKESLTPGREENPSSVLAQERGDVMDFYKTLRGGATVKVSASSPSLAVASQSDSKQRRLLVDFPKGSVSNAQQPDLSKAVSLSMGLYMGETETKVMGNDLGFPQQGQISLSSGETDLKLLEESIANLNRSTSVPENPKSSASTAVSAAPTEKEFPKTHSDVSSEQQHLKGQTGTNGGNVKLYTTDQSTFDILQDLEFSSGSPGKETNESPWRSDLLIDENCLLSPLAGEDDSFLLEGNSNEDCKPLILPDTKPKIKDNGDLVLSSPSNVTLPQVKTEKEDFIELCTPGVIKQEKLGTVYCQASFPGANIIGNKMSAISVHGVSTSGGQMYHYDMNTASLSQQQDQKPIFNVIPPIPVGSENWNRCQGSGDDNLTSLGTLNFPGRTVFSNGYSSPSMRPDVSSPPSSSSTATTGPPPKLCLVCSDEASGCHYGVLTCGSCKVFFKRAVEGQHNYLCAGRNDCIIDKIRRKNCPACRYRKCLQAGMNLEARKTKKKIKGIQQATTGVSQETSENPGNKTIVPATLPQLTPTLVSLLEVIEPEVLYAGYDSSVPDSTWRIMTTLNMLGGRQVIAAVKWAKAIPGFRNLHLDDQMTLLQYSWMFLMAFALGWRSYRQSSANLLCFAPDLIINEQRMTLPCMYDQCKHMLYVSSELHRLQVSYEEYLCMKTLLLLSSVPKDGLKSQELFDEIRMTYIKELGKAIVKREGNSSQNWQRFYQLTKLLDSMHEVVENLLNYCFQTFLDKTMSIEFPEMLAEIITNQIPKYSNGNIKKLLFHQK
Procedure: The activation activity of the glucocorticoid on glucocorticoid receptor was tested in the constructed Hela-MMTV luciferase reporter system cells. Adherent Hela-MMTV cells were digested using a Trypsin-EDTA (0.25%) solution, counted, and the cells in a required number were resuspended in complete medium (1640+10% FBS). The cells were then plated in a 96-well cell culture plate at 10,000 cells/100 μl. The glucocorticoid was diluted in complete medium, starting at a final concentration of 75 nM, followed by 5-fold gradient dilution, and was added to the plated cells at 100 μl per well. The cells were incubated in a cell culture incubator at 37° C. for 48 hours. Then Bio-Lite luciferase assay reagent (Vazyme DD1201-03) was added to the cells at 20 μl per well, followed by homogeneously shaking for 10 minutes, and luminescence readings were obtained using a microplate reader. The data were imported into GraphPad Prism 8 software to calculate the EC50 value.

glucocorticoid receptor [2] = target: T2, glucocorticoid receptor (Homo sapiens, UniProt P04150); test: GRE reporter gene test (Experiment Example 2), HEK293T cells transfected with pGL4.35 and p-Bind GR Vector; settings: for EC50: GRE reporter gene, HEK293T cells, 18-20 h incubation; for Emax: HEK-293T
T2 sequence (P04150 524-777 limits assumed): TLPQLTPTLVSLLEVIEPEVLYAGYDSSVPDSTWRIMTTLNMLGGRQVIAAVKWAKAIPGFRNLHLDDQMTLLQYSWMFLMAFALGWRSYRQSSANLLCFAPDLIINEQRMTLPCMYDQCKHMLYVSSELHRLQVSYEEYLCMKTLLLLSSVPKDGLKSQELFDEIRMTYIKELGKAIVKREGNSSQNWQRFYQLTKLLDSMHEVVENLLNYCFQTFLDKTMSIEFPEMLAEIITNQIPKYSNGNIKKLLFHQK
Procedure: The compound of the present invention to be tested was formulated into a 1 mM solution with DMSO, and then subjected to 4-fold dilution at 10 concentration points using DMSO to obtain a 1000× mother liquor, with a final test concentration of 0.0000038-1 μM.
(§1) HEK293T cells (ATCC) were plated in a 100 mm culture dish at a density of 6*10^6 cells/culture dish, and cultured for 16 h under the conditions of 37° C. and 5% CO2. Plasmids (pGL4.35 [luc2P/9XGAL4 UAS/Hygro], p-Bind GR Vector, Promega) and Lipofectamine® 3000 (Invitrogen) were mixed, added into the culture dish, and then incubated for 5-6 h under the conditions of 37° C. and 5% CO2.
In a 384-well plate (PerkinElmer), 25 nL of the compound mother liquor was added, and then HEK293T cells transfected with plasmids were added at a density of 18000 cells/well (25 μL). The cells were incubated for 18-20 h under the conditions of 37° C. and 5% CO2.
After the incubation was ended, 25 μL of britelite plus luciferase assay reagent (PerkinElmer) was added, and then reading was performed using an Envision 2105 multimode reader (PerkinElmer).
(§2) The activity was calculated using the following formula, % activity=100*(signal of compound well−average signal of negative control well)/(average signal of positive control well−average signal of negative control well). […] Fitting calculation of EC50 was performed on % activity and the logarithmic concentration of the compound using Graphpad 8.0, Y=Bottom+(Top−Bottom)/(1+10^((Log EC50−X)*HillSlope)), wherein Y is % activity, and X is the logarithmic concentration of the compound.

glucocorticoid receptor [3] = target: T2, glucocorticoid receptor; test: GRE reporter gene test (Experiment Example 1), HEK293T cells transfected with pGL4.35 and p-Bind GR Vector
Procedure: The compound of the present invention to be tested was formulated into a 10 mM solution with DMSO, and then subjected to 4-fold dilution at 10 concentration points using DMSO to obtain a 1000× mother liquor, with a final test concentration of 0.000038-10 μM.
as §1
In a 384-well plate (PerkinElmer), 25 nL of the compound mother liquor was added, and then HEK293T cells transfected with plasmids were added at a density of 18000 cells/well. The cells were incubated for 18-20 h under the conditions of 37° C. and 5% CO2.
After the incubation was ended, 25 μL of britelite plus luciferase assay reagent (PerkinElmer) was added, and then reading was performed using an Envision 2105 multiplate reader (PerkinElmer).
as §2

[4] = compared with dexamethasone, transfected HEK293T cells

| SMILES | IC50 (mouse B cells) [nM] | in vitro activation activity on the glucocorticoid receptor in the cells (glucocorticoid receptor [1]) | EC50 (glucocorticoid receptor [1]) [nM] | EC50 (glucocorticoid receptor [2]) [nM] | Emax (glucocorticoid receptor [2]) [%] | maximum agonistic activity (Emax) (glucocorticoid receptor [2]; [4]) | in-vitro inhibitory activity on the proliferation of mouse B cells (mouse B cells) | EC50 (glucocorticoid receptor [3]; GRE reporter gene, HEK293T cells, 18-20 h incubation) [nM] | Emax (glucocorticoid receptor [3]; HEK-293T, read-out: Emax) [%] | maximum agonistic effect (Emax) (glucocorticoid receptor [3]; [4]) |
| --- | --- | --- | --- | --- | --- | --- | --- | --- | --- | --- |
| C[C@@H]1C[C@H]2[C@@H]3C[C@H](F)C4=CC(=O)C=C[C@]4(C)[C@@]3(F)[C@@H](O)C[C@]2(C)[C@@]1(OC(=O)CCO)C(=O)SCF [D-5] | 0.312 | superior to comparative compound 1 | 0.154 | 1.3 | 132 | superior to dexamethasone |  |  |  |  |
| C[C@]12C=CC(=O)C=C1[C@@H](F)C[C@H]1[C@@H]3CC[C@](OC(=O)c4ccc(F)c(N)c4)(C(=O)SCF)[C@@]3(C)C[C@H](O)[C@@]12F [A-1] | 0.032 | superior to comparative compound 1 | 0.0097 |  |  |  | most strongest inhibitory activity | 0.2 | 102 | superior to dexamethasone |
| C[C@H]1C[C@@]2(C)[C@@H](C[C@H]3O[C@@H](c4ccc(Cc5cccc(N)c5)cc4)O[C@]32C(=O)CO)[C@@H]2CCC3=CC(=O)C=C[C@]3(C)[C@H]21 [comparative compound 1, reference compound] |  |  | 0.956 |  |  |  | relatively the weakest inhibitory activity |  |  |  |
| C[C@H](O)CC(=O)O[C@]1(C(=O)SCF)[C@H](C)C[C@H]2[C@@H]3C[C@H](F)C4=CC(=O)C=C[C@]4(C)[C@@]3(F)[C@@H](O)C[C@@]21C [D-15, (6S,8S,9R,10S,11S,13S,14S,16R,17R)-6,9-difluoro-17-(((fluoromethyl)thio)carbonyl)-11-hydroxy-10,13,16-trimethyl-3-oxo-6,7,8,9,10,11,12,13,14,15,16,17-dodecahydro-3H-cyclopenta[a]phenanthren-17-yl (S)-3-hydroxybutyrate] |  |  | 0.074 | 1.4 | 102 |  |  |  |  |  |
| C[C@H]1C[C@@]2(C)[C@@H](C[C@H]3O[C@@H](c4ccc(Cc5cccc(N)c5)cc4)O[C@]32C(=O)CO)[C@@H]2CCC3=CC(=O)C=C[C@]3(C)[C@H]21 [Comparative example 1] | 0.825 |  |  |  |  |  |  |  |  |  |
